From US6524584B2, “Saponin compositions and uses thereof” (priority 1996, dated 2003)

Legend:
[1] = system: bovine serum albumin and cytochrome b5; details: mice; cited from earlier work
cytochrome b5 = details: saponin doses of 20 μg; cited from earlier work
mice = details: mouse, in vivo; cited from earlier work
E.G7-OVA target cells = test: Cytotoxic T-lymphocyte (CTL) assay, 51Cr release, splenic effector cells from immunized mice; assay type: in vivo, C57BL/6 mice; details: s.c. with ovalbumin, weeks 1, 3, 5
Procedure: (§1) All experiments were carried out in C57BL/6 mice (female, 8-12 weeks of age). The synergistic adjuvant-effect of the QS-21/QS-7 mixtures was assessed by two parameters: (1) the ability of these mixtures to improve antibody titers to a subunit antigen, ovalbumin, in mice; and (2) the ability of these mixtures to improve an ovalbumin-specific cytotoxic T lymphocyte (killer cell) response in mice.
The experimental techniques were the following. The mice were immunized subcutaneously at week 1, 3, and 5 with 0.2 ml of the indicated formulations in phosphate-buffered saline. Mice were immunized in groups of five. Sera and spleens were harvested at weeks 7 to 9. Sera was assayed for anti-ovalbumin antibody response by enzyme immunoassay. Briefly, a 96 well Immulon plate was coated with 10 μg/ml ovalbumin in phosphate-buffered saline (PBS) overnight at 4° C. These plates were blocked with 10% normal goat serum in PBS (diluent) for one hour at room temperature. Serial 1:10 dilutions of serum were made in diluent and were incubated on the plates for one hour at room temperature or overnight at 4° C. An enzyme conjugate of anti-mouse IgG (or anti-mouse IgG subclass) was diluted in diluent and incubated on the plate. A calorimetric enzyme substrate, tetramethylbenzidine, was used to assay for binding of anti-ovalbumin antibody. Spleens from immunized mice were used to assay for the cytotoxic T lymphocyte (CTL) response. The effector cells for the (CTL) assay were splenic mononuclear cells from the harvested spleens. The antigen-positive target cells for the assay were E.G7-OVA cells, which are an MHC class II antigen-negative EL4 mouse cell line, transfected with the ovalbumin gene. […] EL4 cells were used as an ovalbumin-negative target cell line. Prior to assay, splenic mononuclear cells were stimulated with antigen to induce maturation of precursor CTL in the effector cell population. The antigens used for stimulation were mitomycin C treated E.G7-OVA cells (incubated with spleen cells at a ratio of 20:1 spleen cells: E.G7-OVA cells) or denatured ovalbumin (25 μg/ml). […]

ovalbumin [2] = details: doses below 2.5 μg, mice; cited from earlier work
ovalbumin [3] = details: at 2.5 μg or lower, mice; cited from earlier work
ovalbumin [4] = test: Serum anti-ovalbumin antibody response by enzyme immunoassay after immunization; assay type: in vivo, C57BL/6 mice; details: saponin dose 0.625 μg, alone
Procedure: as §1
The experimental techniques were the following. The mice were immunized subcutaneously at week 1, 3, and 5 with 0.2 ml of the indicated formulations in phosphate-buffered saline. Mice were immunized in groups of five. Sera and spleens were harvested at weeks 7 to 9. Sera was assayed for anti-ovalbumin antibody response by enzyme immunoassay. Briefly, a 96 well Immulon plate was coated with 10 μg/ml ovalbumin in phosphate-buffered saline (PBS) overnight at 4° C. These plates were blocked with 10% normal goat serum in PBS (diluent) for one hour at room temperature. Serial 1:10 dilutions of serum were made in diluent and were incubated on the plates for one hour at room temperature or overnight at 4° C. An enzyme conjugate of anti-mouse IgG (or anti-mouse IgG subclass) was diluted in diluent and incubated on the plate. A calorimetric enzyme substrate, tetramethylbenzidine, was used to assay for binding of anti-ovalbumin antibody. […]

| Substance | antibody responses to bovine serum albumin and cytochrome b5 [1] | IgG2a response to cytochrome b5 (cytochrome b5) | toxicity in mice (mice) | stimulating a CTL response (E.G7-OVA target cells; saponin dose 0.625 μg) | stimulating a CTL response (E.G7-OVA target cells; saponin dose 1.25 μg) | stimulating a CTL response (E.G7-OVA target cells; saponin dose 20 μg) | adjuvant for raising an antibody response to ovalbumin (ovalbumin [2]) | CTL response to ovalbumin (ovalbumin [3]) | antibody titer compared with no adjuvant (ovalbumin [4]) |
| --- | --- | --- | --- | --- | --- | --- | --- | --- | --- |
| QS-17 | stimulate potent antibody responses | stimulate IgG2a response |  |  |  |  |  |  |  |
| QS-18 | stimulate potent antibody responses | stimulate IgG2a response |  |  |  |  |  |  |  |
| QS-21 | stimulate potent antibody responses | stimulate IgG2a response | least toxic | ineffective | ineffective | highly effective | ineffective | minimal | neither 10 μg QS-7 or 0.625 μg QS-21, individually, yields a titer that is higher than no adjuvant |
